Test results taken from ChEMBL document CHEMBL1155699, “Steroidal alkaloids from the leaves of Sarcococca coriacea of Nepalese origin” (J Nat Prod, 2001).

Assays:
Acetylcholinesterase = Acetylcholinesterase (Electrophorus electricus, UniProt O42275); assay: Inhibition of electric eel AChE by Ellman's method
Cholinesterase = Cholinesterase (Equus caballus, UniProt P81908); assay: Inhibition of horse BChE
Sequence of Cholinesterase (P81908 whole entry): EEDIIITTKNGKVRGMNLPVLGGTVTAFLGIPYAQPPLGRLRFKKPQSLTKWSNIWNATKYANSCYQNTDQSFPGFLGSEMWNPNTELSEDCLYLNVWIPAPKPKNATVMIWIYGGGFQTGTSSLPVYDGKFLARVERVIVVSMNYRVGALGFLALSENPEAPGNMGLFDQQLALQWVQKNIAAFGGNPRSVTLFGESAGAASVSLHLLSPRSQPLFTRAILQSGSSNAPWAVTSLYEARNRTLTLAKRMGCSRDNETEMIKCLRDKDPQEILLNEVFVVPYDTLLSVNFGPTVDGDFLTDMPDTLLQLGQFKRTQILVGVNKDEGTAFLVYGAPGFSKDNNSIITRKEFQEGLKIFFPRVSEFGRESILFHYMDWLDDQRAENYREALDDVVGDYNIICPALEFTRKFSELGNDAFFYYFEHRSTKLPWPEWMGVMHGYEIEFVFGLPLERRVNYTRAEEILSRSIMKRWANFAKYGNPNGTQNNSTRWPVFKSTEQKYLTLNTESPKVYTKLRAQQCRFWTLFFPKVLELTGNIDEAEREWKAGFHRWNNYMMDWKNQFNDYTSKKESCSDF

Sequence of Acetylcholinesterase (O42275 whole entry): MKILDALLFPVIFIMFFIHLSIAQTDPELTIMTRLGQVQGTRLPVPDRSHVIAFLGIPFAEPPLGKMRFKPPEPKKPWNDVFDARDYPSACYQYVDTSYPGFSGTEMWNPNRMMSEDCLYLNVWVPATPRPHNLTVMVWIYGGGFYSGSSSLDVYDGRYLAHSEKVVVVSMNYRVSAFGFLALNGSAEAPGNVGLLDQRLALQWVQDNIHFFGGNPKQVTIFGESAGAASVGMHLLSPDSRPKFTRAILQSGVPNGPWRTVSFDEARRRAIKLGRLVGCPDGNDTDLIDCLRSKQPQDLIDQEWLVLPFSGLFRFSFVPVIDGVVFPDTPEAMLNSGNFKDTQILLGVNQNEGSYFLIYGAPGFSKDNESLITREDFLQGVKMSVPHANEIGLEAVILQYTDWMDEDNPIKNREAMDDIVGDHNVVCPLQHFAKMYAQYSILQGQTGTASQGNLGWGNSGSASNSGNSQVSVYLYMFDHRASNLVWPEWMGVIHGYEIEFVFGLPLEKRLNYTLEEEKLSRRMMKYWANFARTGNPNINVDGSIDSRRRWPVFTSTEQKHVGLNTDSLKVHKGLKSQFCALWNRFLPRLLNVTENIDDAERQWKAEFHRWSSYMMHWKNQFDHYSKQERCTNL

SMILES | IC50 (Acetylcholinesterase) | IC50 (Cholinesterase)
C/C=C(\C)C(=O)N[C@@H]1[C@H](OC(C)=O)[C@@H]2CC[C@@H]3[C@H](CC[C@]4(C)C([C@H](C)NC)=CC[C@@H]34)[C@@]2(C)C[C@@H]1OC(C)=O [NEPAPAKISTAMINE] | 50.1 µM | 25 µM
CC(=O)O[C@H]1[C@@H](NC(=O)C=C(C)C)CC[C@]2(C)[C@H]3CC[C@]4(C)C([C@H](C)N(C)C)=CC[C@H]4[C@@H]3CC[C@@H]12 [VAGANINE D] | 46.9 µM | 10 µM
